A word on the inhibition: it is how much of the control response was suppressed. Broadly, the IC50 is the concentration that inhibits the measured activity by half. A word on the GI50: it is the concentration at which growth is held to half of that of the control.

The source of these data is ChEMBL document CHEMBL6078705 (Bioorg Med Chem, 2025).

The target of series [1] is Tubulin (Homo sapiens) (UniProt P68371+Q9H4B7+P0DPH7+P68366+Q13509+Q71U36+P04350+Q3ZCM7+P07437+P68363+Q9BQE3+Q6PEY2+Q13885+Q9BVA1+Q9BUF5). The series is described as follows: Inhibition of [3H]Colchicine binding to tubulin (unknown origin) at 5 uM incubated for 10 mins in presence of GTP by Beckman scintillation counter relative to control. The format is protein-complex assay.

Series [2] can be described thus: Inhibition of bovine brain tubulin polymerization preincubated for 15 mins followed by GTP addition and measured after 20 mins by spectrophotometric analysis. Also noted: species or system Bos taurus.
The test system of series [3] is MDA-MB-231. The series is described as follows: Cytotoxicity against human MDA-MB-231 cells assessed as cell growth inhibition incubated for 96 hrs by SRB assay. It counts as functional. A general note: Sulforhodamine B stains cellular protein and so reports cell mass.
Series [4] relates to MCF7. The series is described as follows: Cytotoxicity against human MCF7 cells assessed as cell growth inhibition. It counts as functional.
Series [5] in a line: Toxicity in female syngenic BALB/c mouse implanted with orthotropic RENCA-Luc cells assessed as animal death at 50 to 100 mg/kg, ip measured after 24 hrs. It counts as organism-based. To be noted: in vivo, dose 50-100 mg/kg.
Series [6] relates to Mus musculus. The series is described as follows: Vascular disrupting agent in female syngenic BALB/c mouse implanted with orthotropic RENCA-Luc cells assessed as reduction in bioluminescence imaging signal at 100 mg/kg, ip measured at 24 hrs by imaging analysis. The format is functional, organism-based.
For series [7], the system named is Mus musculus. The series is described as follows: Vascular disrupting agent in female syngenic BALB/c mouse implanted with orthotropic RENCA-Luc cells assessed as reduction in bioluminescence imaging signal at 50 mg/kg, ip measured at 24 hrs by imaging analysis. It counts as functional, organism-based.
The subject of series [8] is Mus musculus. The series is described as follows: Vascular disrupting agent in female syngenic BALB/c mouse implanted with orthotropic RENCA-Luc cells assessed as reduction in bioluminescence imaging signal at 100 mg/kg, ip measured at 4 hrs by imaging analysis relative to control. The format is functional. Set-up: scale not given: the % may be the effect or the level left.

Series [9] relates to Mus musculus. The series is described as follows: Vascular disrupting agent in female syngenic BALB/c mouse implanted with orthotropic RENCA-Luc cells assessed as reduction in bioluminescence imaging signal at 50 mg/kg, ip measured at 4 hrs by imaging analysis relative to control. The format is functional. Also noted: scale not given: the % may be the effect or the level left.

In series [10] the test system is Mus musculus. The series is described as follows: Vascular disrupting activity in female BALB/c mouse implanted with orthotropic 4T1-Luc cells assessed as reduction in bioluminescence imaging signal at 20 mg/kg, ip measured at 4 hrs by imaging analysis. The format is functional, organism-based.
The nature of series [11]: Toxicity in female BALB/c mouse implanted with orthotropic 4T1-Luc cells assessed as animal death at >50 mg/kg, ip measured within 24 hrs. The format is organism-based. To be noted: in vivo.
For series [12], the system named is Mus musculus. The series is described as follows: Vascular disrupting activity in female BALB/c mouse implanted with orthotropic 4T1-Luc cells assessed as reduction in bioluminescence imaging signal at 50 mg/kg, ip measured at 4 hrs by imaging analysis relative to control. The format is functional. Also noted: scale not given: the % may be the effect or the level left.

In series [13] the test system is Mus musculus. The series is described as follows: Vascular disrupting activity in female BALB/c mouse implanted with orthotropic 4T1-Luc cells assessed as reduction in bioluminescence imaging signal at 20 mg/kg, ip measured at 24 hrs by imaging analysis relative to control. It counts as functional. Set-up: scale not given: the % may be the effect or the level left.

The structures appear in SMILES notation. Calls of active or inactive are those of the source. No cut-off for these calls is given here.

As for `COc1ccc2c(C(=O)c3cccc(F)c3)c(-c3ccc(OC)c(O)c3)[nH]c2c1`, the inhibition in series [1] was found to be 25%. In [2], this compound displayed an IC50 of 1600 nM. The GI50 in series [3] amounted to 7110 nM; in [4] it was 2500 nM.

As for `COc1ccc(-c2[nH]c3c(O)c(OC)ccc3c2C(=O)c2cc(OC)c(OC)c(OC)c2)cc1`, in [2], half-maximal inhibition (IC50) was put at 860 nM. The GI50 in series [3] is 170 nM; in [4] it was 6 nM.

Turning to `COc1ccc(/C=C\c2cc(OC)c(OC)c(OC)c2)cc1O` [COMBRETASTATIN A4], the IC50 in series [2] is 910 nM. For the same compound, the figures for the GI50 in series [3] and in series [4] were 1.7 nM and 9.5 nM, respectively.

As to `COc1ccc(-c2[nH]c3c(OC)c(OC)ccc3c2C(=O)c2cc(OC)c(OC)c(OC)c2)cc1OP(=O)([O-])[O-].[Na+].[Na+]`, the Activity result in series [5] is “Non-toxic”; in series [6] it was “Active; Slight Recovery Observed”; in series [7] it was “Active; Little Change Observed Relative To 4 Hrs Compound Treatment”; in series [8], 91%; in series [9], 15%.

On to `COc1ccccc1-c1[nH]c2cc(OC)c(OC)c(OC)c2c1C(=O)c1cc(OC)c(OC)c(OC)c1`, for which, in series [1], the inhibition came out at 70%. Besides, in series [2], half-maximal inhibition (IC50) was put at 920 nM. Moreover, the results for the GI50 in [3] and in series [4] were 6980 nM and 85 nM, respectively.

Regarding `COc1ccc(-c2[nH]c3c(C)c(C)ccc3c2C(=O)c2cc(OC)c(OC)c(OC)c2)cc1O`, the IC50 in series [2] is over 20000 nM. For the same compound, in series [4], the GI50 was over 5000 nM.

In series [2], `COc1ccc(-c2[nH]c3c(OC)c(OC)c(OC)cc3c2C(=O)c2cc(OC)c(OC)c(OC)c2)cc1O` yielded an IC50 of over 20000 nM. For the same compound, the GI50 in series [4] is over 5000 nM.

In the case of `COc1ccc(-c2[nH]c3c(OC)c(OC)ccc3c2C(=O)c2cc(OC)c(OC)c(OC)c2)cc1O`, in series [2], the IC50 came to 760 nM. The values for the GI50 in series [3] and in series [4] were 14 nM and 3.5 nM, respectively.

For the compound `COc1ccc2c(C(=O)c3cc(Cl)cc(Cl)c3)c(-c3ccc(OC)c(O)c3)[nH]c2c1`, the inhibition in series [1] was found to be 80%. The IC50 in series [2] is 740 nM. Further, the GI50 was 133 nM in series [3] and 240 nM in [4].

On to `COc1cccc(C(=O)c2c(-c3ccc(OC)c(O)c3)[nH]c3cc(OC)ccc23)c1`, for which the inhibition in series [1] worked out at 33%. The same compound yielded an IC50 in [2] of 4200 nM. Also, the figures for the GI50 in series [3] and in series [4] were 537 nM and 490 nM, respectively.

As to `COc1ccc(-c2[nH]c3c(OP(=O)([O-])[O-])c(OC)ccc3c2C(=O)c2cc(OC)c(OC)c(OC)c2)cc1OC.[Na+].[Na+]`, the outcome in [10] was inactive. Besides, the Activity entry in series [11] is “Toxic”; in series [12], 95%; in [13] it was 50%.

In series [2], `COc1ccc2c(C(=O)c3c(F)c(F)c(F)c(F)c3F)c(-c3ccc(OC)c(O)c3)[nH]c2c1` displayed an IC50 of over 20000 nM. Besides, the concentration for 50% growth inhibition (GI50) in [4] was over 5000 nM.

Turning to `COc1ccc2c(C(=O)c3cc(OC)c(OC)c(OC)c3)c(-c3ccc(OC)c(Br)c3)[nH]c2c1`, the inhibition in series [1] came out at 34%. In series [2], this compound showed an IC50 of 1200 nM. The GI50 in series [3] stood at 483 nM; in series [4] it was 413 nM.

For `COc1ccc2c(C(=O)c3cccc(Cl)c3)c(-c3ccc(OC)c(O)c3)[nH]c2c1`, the inhibition in [1] worked out at 69%. Besides, the IC50 in series [2] worked out at 450 nM. Further, the GI50 in [3] turned out to be 319 nM; in [4], 470 nM.

In [2], `COc1cccc(-c2[nH]c3cc(OC)c(OC)c(OC)c3c2C(=O)c2cc(OC)c(OC)c(OC)c2)c1` came in with an IC50 of over 5000 nM. Also, in [4], the GI50 was over 5000 nM.

With `COc1ccc2c(C(=O)c3cc(F)cc(F)c3)c(-c3ccc(OC)c(O)c3)[nH]c2c1`, the inhibition in series [1] came out at 50%. In series [2], the IC50 amounted to 820 nM. The GI50 in series [3] was determined as 3170 nM; in series [4], 1500 nM.

For the compound `COc1ccc2c(C(=O)c3cc(OC)c(OC)c(OC)c3)c(-c3ccc(OC)c(N)c3)[nH]c2c1`, the inhibition in [1] came to 65%. The compound further yielded an IC50 in [2] of 430 nM. For the same compound, the GI50 is 36.9 nM in [3] and 20 nM in series [4].

`COc1ccc(-c2[nH]c3cc(OC)c(OC)c(OC)c3c2C(=O)c2cc(OC)c(OC)c(OC)c2)cc1` gave an IC50 in series [2] of over 5000 nM. Moreover, the GI50 in series [4] stood at 1500 nM.

On to `COc1ccc2c(C(=O)c3cc(OC)c(OC)c(OC)c3)c(-c3ccc(OC)c([N+](=O)[O-])c3)[nH]c2c1`, for which the inhibition in series [1] amounted to 24%. This compound also came in with an IC50 in series [2] of 770 nM. Moreover, the GI50 in series [3] was 275 nM; in [4], 120 nM.
